# Columns and labels:
# [1] = administered to the foal; cited from earlier work
# R equi = details: administered to the foal; cited from earlier work
# [2] = Fecal concentration of gallium in mares given oral gallium nitrate daily; format: in vivo; details: 9.2 mg/kg of 1% GaN daily from day 320
# Description: FIG. 3 is a graph showing fecal concentration of gallium in ppm of gram of feces in control mares versus treated.
# (§1) For example, without limitation, in horses fed the same amount, the blood concentration increased from 0.0000231 micromoles/g to 0.0009004 micromoles/g well below what is needed to kill R. equi in the blood, but is a […] increase in blood concentration over time. Previous in vitro data found anything over 0.050 micromoles/ml killed R. equi in culture, and higher concentrations worked better. Administering oral gallium nitrate to mares daily achieved about 1.5 to 7.1 micromoles of gallium per gram of dry feces. This also led to a reduction in the concentration of R. equi in the feces of the mares.
# To determine the number of virulent colonies on each plate, a modified colony immunoblot method was used, as previously described (E.g., Grimm M B, Cohen N D, Slovis N M, et al. Evaluation of mares from a Thoroughbred breeding farm as a source of Rhodococcus equi for their foals using quantitative culture and a colony immunoblot assay. Am J Vet Res 2007; 68:63-71). Briefly, this procedure entails applying nitrocellulose membranes to culture plates to transfer bacterial surface proteins, blotting the membranes using a murine monoclonal antibody against the vapA protein, and then using a labeled secondary antibody to detect the presence of vapA-positive (i.e. virulent) colonies. […]
# [3] = 300 to 1500 mg/kg intraperitoneally; cited from earlier work
# [4] = Safety / adverse effects of gallium nitrate in horses; format: in vivo
# Procedure: (§2) For example, without limitations, two adult horses were given a single dose of gallium nitrate by nasogastric tube at a dose of 9.2 mg/kg at 1% gallium nitrate concentration. […] Based on tis work, two more horses were dosed with 9.2 mg/kg of daily for 6 days to determine steady state values. […] There were traces of gallium present in both the red blood cells (“RBC”) and smaller amounts in the serum prior to any medication administration. It appears to concentrate in the RBC and move into the serum. The significance of this is unknown.
# virulent R. equi [5] = assay: Fecal concentration of virulent R. equi in peripartum mares (culture, colony immunoblot); format: in vivo, Rhodococcus equi
# Procedure: (§3) As part of a non-limiting example of an embodiment of the invention, the effect of oral GaN on the concentrations of virulent R. equi in the feces of the mares was determined. Twenty-one horses were randomly assigned in a paired block design to ensure that 10 mares were part of the treated group and 11 mares were part of the control group. These twenty-one Arabian mares were treated daily with either oral gallium nitrate or placebo. Fecal samples were collected at day 320 of gestation (time 1), the week before foaling (time 2), and the week after foaling (time 3). Airborne concentration of R. equi were measured in the stall within 6 hours post foaling using a microbial air sampling system into which standard (100-mm) culture plates with a media selective for R. equi have been loaded. This sample size of mares was selected on the basis of power calculations using the following assumptions: (a) significance level of P=0.05; (b) statistical power of 90%; (c) a mean of 1×10^4 colony forming units (cfu) per gram of feces among control mares; (d) a mean of 1×10^3 cfu per gram of feces among principal mares; and (e) standard deviations of 1×10^4 and 1×10^3 for the control and principal groups, respectively. The values for fecal concentrations were made on the basis of prior experiences of a collaborator. The total number of R. equi colonies on a plate was determined by morphologic identification; additionally, 10 colonies identified as R. equi each month were tested by PCR to confirm that the isolates are R. equi.
# To determine the number of virulent colonies on each plate, a modified colony immunoblot method was used, as previously described (E.g., Grimm M B, Cohen N D, Slovis N M, et al. Evaluation of mares from a Thoroughbred breeding farm as a source of Rhodococcus equi for their foals using quantitative culture and a colony immunoblot assay. Am J Vet Res 2007; 68:63-71). […]
# Concentrations of total R. equi were determined by morphological characteristics. The concentration of virulent R. equi was determined using a modified colony immunoblot method. […]
# [6] = Whole blood and serum gallium in horses after gallium nitrate by nasogastric tube / oral dosing; format: in vivo
# Procedure: FIG. 1 is a graph showing whole blood concentrations (micromoles/g) of horses in which gallium nitrate was administered daily after pulling blood for two days pre-administration. The horses were treated for five days.
# as §1, §2
# R. equi [7] = assay: Airborne concentration of R. equi in foaling stalls shortly after foaling; format: in vivo, Rhodococcus equi; details: stall air after foaling
# Procedure: as §3, with “This sample size of mares was selected on the basis of power calculations using the following assumptions: (a) significance level of P=0.05; (b) statistical power of 90%; (c) a mean of 1×10^4 colony forming units (cfu) per gram of feces among control mares; (d) a mean of 1×10^3 cfu per gram of feces among principal mares; and (e) standard deviations of 1×10^4 and 1×10^3 for the control and principal groups, respectively. The values for fecal concentrations were made on the basis of prior experiences of a collaborator.” left out
# As part of a non-limiting example of an embodiment of the invention, the following method was employed to determine the effect of oral GAN on the airborne concentration of virulent R. equi in foaling stalls shortly after birth. […] The number of total and virulent R. equi counted on each plate represented the airborne concentrations (cfu/1,000 liters of air). […]
# virulent R. equi [8] = assay: Virulent R. equi in feces of mares by real-time TaqMan PCR of vapA gene; format: in vivo, Rhodococcus equi
# Procedure: As part of a non-limiting example of an embodiment of the invention, virulent R. equi in feces was measured in the feces using the following method. Two milliliters of PBS were added to 1 g of each fecal sample in a conical tube. Thereafter, each sample was vortexed for 10 seconds and centrifuged at 13,000× g for 1 minute. In order to minimize contamination, all pipetting steps were performed in a laminar flow cabinet. Nucleic acid purification from 180 μl of supernatant fluid was performed using an automated nucleic acid extraction system (CAS-1820 X-tractor Gene, Corbett Life Science, Sydney, Australia) according to the manufacturer's recommendations. A real-time TaqMan PCR assay for R. equi has been established and validated. The assay is based on the detection of a specific 75 base-pair long product of the vapA gene of R. equi (GenBank accession number AF116907; oligonucleotides: forward primer […], reverse primer […], probe […]). Each PCR reaction contained 400 nM of each primer, 80 nM of the TaqMan probe and mastermix (TaqMan Universal PCR Mastermix, Applied Biosystems, Foster City, Calif.) and 1 μL of the gDNA sample in a final volume of 12 μL. […] DNA extraction and amplification efficiency were verified by quantitating the universal bacterial 16S rRNA gene. Absolute quantitation of R. equi target molecules was performed using a standard curve and expressed as R. equi vapA target genes per 1 g of feces. […]
# The number of CFU/g of either virulent R. equi in feces was estimated using real-time PCR. Because these samples were collected serially from individual mares, these longitudinal data were analyzed using mixed-effects modeling, with time (number of days since last known breeding date) and treatment group modeled as fixed effects, and individual mare modeled as a random effect. […] The count of positive samples were determined for each mare, and Poisson regression analysis was used to examine the effects of treatment. […]
# R. equi [9] = details: reported; cited from earlier work
# [10] = pregnant mice, cited from earlier work
# R. equi [11] = details: cited from earlier work
smiles,measurement,setting,value
Cc1occc(=O)c1[O-].Cc1occc(=O)c1[O-].Cc1occc(=O)c1[O-].[Ga+3] [Gallium maltolate],gallium serum concentration,[1],increased
same,"cumulative incidence of R equi pneumonia, control versus treated groups",R equi,no significant differences
O=[N+]([O-])[O-].O=[N+]([O-])[O-].O=[N+]([O-])[O-].[Ga+3] [gallium nitrate],"fecal concentration of gallium, treated versus control mares (FIG. 3)",[2],significant increase
same,effect on regeneration of bone and cartilage,[3],dose dependent effect
same,adverse effects in dosed horses,[4]; 9.2 mg/kg single dose or daily for 6 days,None of the horses showed any adverse effects
same,adverse effects in pregnant mares,[4]; from conception through foaling,no demonstrable adverse effects
same,adverse event claims in field use,"[4]; used in over 10,000 horses",not been a single claim of any adverse event
same,concentration of R. equi in the feces of the mares,virulent R. equi [5]; oral gallium nitrate daily,reduction
same,"concentrations of virulent R. equi in feces, treatment group compared to control","virulent R. equi [5]; time 3, week after foaling, P<0.05",significantly lower
same,"concentrations of virulent R. equi in feces, time 3 versus time 1 in treatment group","virulent R. equi [5]; week after foaling versus day 320 of gestation, P<0.05",significantly (P<0.05) lower
same,whole blood concentrations following gallium nitrate administration (FIG. 1),"[6]; 9.2 mg/kg daily for 6 days, two horses",increased
same,increase in blood concentration over time,[6]; horses,250%
same,"blood concentration of gallium, starting value","[6]; horses, value the concentration increased from",0.0000231 µmol/g
same,"blood concentration of gallium, after feeding","[6]; horses, value the concentration increased to",0.0009004 µmol/g
same,time of peak gallium in whole blood and serum,"[6]; single dose 9.2 mg/kg, 1% gallium nitrate, nasogastric tube",around 24 hours
same,time by which absorption of gallium was demonstrated,"[6]; single dose 9.2 mg/kg, 1% gallium nitrate, nasogastric tube, whole blood and serum",≤ 6 h
same,treated mares with positive airborne samples,R. equi [7],2 of 10
same,highest level of virulent R. equi in feces in any treated mare,virulent R. equi [8],"17,500 CFU/g"
same,level of virulent R. equi in feces in most treated mares,virulent R. equi [8],"≤ 1,600 CFU/g"
same,level of virulent R. equi in feces in several treated mares,virulent R. equi [8],almost undetectable levels
same,R. equi growth in experimentally infected mice,R. equi [9],decrease R. equi growth
same,adverse effects in the fetus,[10]; 50 mg/kg and below,no adverse effects
same,fetal malformations,[10]; 100 mg/kg,cleft palate and renal hypoplasia were increased
same,concentration that killed R. equi in culture,R. equi [11]; previous in vitro data,over 0.050 micromoles/ml
same,effect on growth of R. equi grown in media,R. equi [11]; reported,significant inhibition in growth and to even kill R. equi

# Source: US20140193521A1, “Drug Delivery Systems and Method of Reducing Foal Infection by Treating Mares with Gallium Salts” (priority 2011, published 2014)
